This passage reports IC50 results from patent US10752640B2, “Compounds active towards bromodomains” (NUEVOLUTION A/S, priority 2014, dated 2020).

Structures are written as SMILES.

This assay deals with BRD4 protein (Homo sapiens, UniProt O60885). In words: FRET assay, half maximal inhibitory concentration (IC50). The class given is binding. Conditions: BRD4 protein 50 nM, Biotin-H4KAc4 peptide 12.5 nM; A Further List of Classification. The procedure, abridged: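 HTRF: 50 nM BRD4 preincubated 30 min at room temperature with compound (10-fold series from 50 μM in 12.5% DMSO) in 50 mM HEPES pH 7.5, 100 mM NaCl, 0.05% CHAPS. Then 12.5 nM biotin-H4KAc4 peptide for 30 min, and anti-GST XL665 (10 nM) plus streptavidin cryptate (2.4 nM) with 0.4 M KF for 1 h. IC50 by variable-slope fit.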
One may read the IC50 as the concentration at which inhibition is half-maximal. Higher therefore signals lower potency. Turning to `CN1CCN(c2ccccc2C(=O)Nc2ccc3c(c2)CCC(=O)N3C)CC1` [S6, N-(1-methyl-2-oxo-3,4-dihydroquinolin-6-yl)-2-(4-methylpiperazin-1-yl)benzamide], the IC50 is > 10000 nM.

Regarding `CN1CCN(c2ccccc2C(=O)Nc2ccc3c(c2)OCC(=O)N3C)CC1` [S7, N-(4-methyl-3-oxo-1,4-benzoxazin-7-yl)-2-(4-methylpiperazin-1-yl)benzamide], the IC50 was > 10000 nM.

As for `CN1C(=O)CCc2cc(NC(=O)c3ccccc3N3CCN(c4cnccn4)CC3)ccc21` [S8, N-(1-methyl-2-oxo-3,4-dihydroquinolin-6-yl)-2-(4-pyrazin-2-ylpiperazin-1-yl)benzamide], the IC50 was > 10000 nM.

On to `CN1C(=O)CCc2cc(NC(=O)c3cc([N+](=O)[O-])ccc3N3CCOCC3)ccc21` [S9, N-(1-methyl-2-oxo-3,4-dihydroquinolin-6-yl)-2-morpholino-5-nitro-benzamide], for which the IC50 is > 10000 nM.

Compound `Cc1cc(O)nc2ccc(NC(=O)c3ccccc3N3CCN(C)CC3)cc12` [S10, N-(2-hydroxy-4-methyl-6-quinolyl)-2-(4-methylpiperazin-1-yl)benzamide] registered an IC50 of 1000 to 10000 nM.

As for `Cc1cc(O)nc2ccc(NC(=O)c3ccccc3N3CCN(c4cnccn4)CC3)cc12` [S11, N-(2-hydroxy-4-methyl-6-quinolyl)-2-(4-pyrazin-2-ylpiperazin-1-yl)benzamide], the IC50 lay within 1000 to 10000 nM.

For `Cc1cc(O)nc2ccc(NC(=O)c3cc(S(N)(=O)=O)ccc3N3CCOCC3)cc12` [S12, N-(2-hydroxy-4-methyl-6-quinolyl)-2-morpholino-5-sulfamoyl-benzamide], the IC50 is < 200 nM.

Consider `CN1C(=O)CCc2cc(NC(=O)c3cc(S(N)(=O)=O)ccc3N3CCOCC3)ccc21` [S13, N-(1-methyl-2-oxo-3,4-dihydroquinolin-6-yl)-2-morpholino-5-sulfamoyl-benzamide], for which the IC50 was in the range of 1000 to 10000 nM.

`Cc1cc(O)nc2ccc(NC(=O)c3cc(N4C(=O)CCC4=O)ccc3N3CCOCC3)cc12` [S14, 5-(2,5-dioxopyrrolidin-1-yl)-N-(2-hydroxy-4-methyl-6-quinolyl)-2-morpholino-benzamide] returned an IC50 of 200 to 500 nM.

`Cc1cc(O)nc2ccc(NC(=O)c3cc(NS(=O)(=O)c4ccccc4)ccc3N3CCN(C)CC3)cc12` [S15, 5-(benzenesulfonamido)-N-(2-hydroxy-4-methyl-6-quinolyl)-2-(4-methylpiperazin-1-yl)benzamide] yielded an IC50 of 500 to 1000 nM.

Regarding `CCS(=O)(=O)Nc1ccc(N2CCN(C)CC2)c(C(=O)Nc2ccc3nc(O)cc(C)c3c2)c1` [S16, 5-(ethylsulfonylamino)-N-(2-hydroxy-4-methyl-6-quinolyl)-2-(4-methylpiperazin-1-yl)benzamide], the IC50 is 1000 to 10000 nM.

For the compound `Cc1cc(O)nc2ccc(NC(=O)c3cc([N+](=O)[O-])ccc3N3CCOCC3)cc12` [S17, N-(2-hydroxy-4-methyl-6-quinolyl)-2-morpholino-5-nitro-benzamide], the IC50 was < 200 nM.

For the compound `Cc1cc(O)nc2ccc(NC(=O)c3cc(S(=O)(=O)N4CCCCC4)ccc3N3CCOCC3)cc12` [S19, N-(2-hydroxy-4-methyl-6-quinolyl)-2-morpholino-5-(1-piperidylsulfonyl)benzamide], the IC50 is < 200 nM.

For `Cc1cc(O)nc2ccc(NC(=O)c3cc(S(=O)(=O)N4CCOCC4)ccc3N3CCOCC3)cc12` [S20, N-(2-hydroxy-4-methyl-6-quinolyl)-2-morpholino-5-morpholinosulfonyl-benzamide], the IC50 was < 200 nM.

For `Cc1cc(O)nc2ccc(NC(=O)c3cccc(CN4CCNCC4)c3)cc12` [S21, N-(2-hydroxy-4-methyl-6-quinolyl)-3-(piperazin-1-ylmethyl)benzamide], the IC50 lay in the range of 500 to 1000 nM.

In the case of `Cc1cc(O)nc2ccc(NC(=O)c3cc([N+](=O)[O-])ccc3N(C)C)cc12` [S22, 2-(dimethylamino)-N-(2-hydroxy-4-methyl-6-quinolyl)-5-nitro-benzamide], the IC50 is 200 to 500 nM.

Consider `CNS(=O)(=O)c1cccc(C(=O)Nc2ccc3nc(O)cc(C)c3c2)c1` [S23, N-(2-hydroxy-4-methyl-6-quinolyl)-3-(methylsulfamoyl)benzamide], for which the IC50 is > 10000 nM.

Consider `Cc1cc(O)nc2ccc(NC(=O)c3cccc(CN4CCCC4=O)c3)cc12` [S24, N-(2-hydroxy-4-methyl-6-quinolyl)-3-[(2-oxopyrrolidin-1-yl)methyl]benzamide, reference compound], for which the IC50 is > 10000 nM.

For the compound `Cc1cc(O)nc2ccc(NC(=O)c3cc([N+](=O)[O-])ccc3N3CCCC3)cc12` [S25, N-(2-hydroxy-4-methyl-6-quinolyl)-5-nitro-2-pyrrolidin-1-yl-benzamide], the IC50 was < 200 nM.

Consider `Cc1cc(O)nc2ccc(NC(=O)c3cccc(S(=O)(=O)NCC(N)=O)c3)cc12` [S26, 3-[(2-amino-2-oxo-ethyl)sulfamoyl]-N-(2-hydroxy-4-methyl-6-quinolyl)benzamide], for which the IC50 was > 10000 nM.

With `Cc1cc(O)nc2ccc(NC(=O)c3cc(S(=O)(=O)N(C)C)ccc3N3CCCC3)cc12` [S27, 5-(dimethylsulfamoyl)-N-(2-hydroxy-4-methyl-6-quinolyl)-2-pyrrolidin-1-yl-benzamide], the IC50 was < 200 nM.

`Cc1cc(O)nc2ccc(NC(=O)c3cc(N4CCOCC4)ccc3NS(C)(=O)=O)cc12` [S28, N-(2-hydroxy-4-methyl-6-quinolyl)-2-(methanesulfonamido)-5-morpholino-benzamide] displayed an IC50 of 200 to 500 nM.

Take `Cc1cc(O)nc2ccc(NC(=O)c3cccc(N4CCCC4)c3)cc12` [S29, N-(2-hydroxy-4-methyl-6-quinolyl)-3-pyrrolidin-1-yl-benzamide, reference compound]: the IC50 was > 10000 nM.

Regarding `Cc1cc(O)nc2ccc(NC(=O)c3ccc(N)c([N+](=O)[O-])c3)cc12` [S30, 4-amino-N-(2-hydroxy-4-methyl-6-quinolyl)-3-nitro-benzamide, reference compound], the IC50 is > 10000 nM.

The compound `NS(=O)(=O)c1ccc(N2CCOCC2)c(C(=O)Nc2ccc3[nH]c(=O)cc(C(F)(F)F)c3c2)c1` [S32, 2-morpholino-N-[2-oxo-4-(trifluoromethyl)-1H-quinolin-6-yl]-5-sulfamoyl-benzamide] came in with an IC50 of 1000 to 10000 nM.

`Cc1cc(O)nc2ccc(NC(=O)c3cc(S(=O)(=O)N(C)C)ccc3F)cc12` [S33, 5-(dimethylsulfamoyl)-2-fluoro-N-(2-hydroxy-4-methyl-6-quinolyl)benzamide]: the IC50 is > 10000 nM.

In the case of `Cc1cc(O)nc2ccc(NC(=O)c3cc(S(=O)(=O)N4CCOCC4)ccc3Br)cc12` [S34, 2-bromo-N-(2-hydroxy-4-methyl-6-quinolyl)-5-morpholinosulfonyl-benzamide], the IC50 is > 10000 nM.

For the compound `O=C(Nc1ccc2[nH]c(=O)cc(O)c2c1)c1cc(S(=O)(=O)N2CCOCC2)ccc1N1CCOCC1` [S35, N-(4-hydroxy-2-oxo-1H-quinolin-6-yl)-2-morpholino-5-morpholinosulfonyl-benzamide], the IC50 is < 200 nM.

As to `Cc1cc(O)nc2ccc(NC(=O)c3cccc(S(=O)(=O)N4CCN(C)CC4)c3)cc12` [S36, N-(2-hydroxy-4-methyl-6-quinolyl)-3-(4-methylpiperazin-1-yl)sulfonyl-benzamide], the IC50 is > 10000 nM.

Regarding `CN(C)S(=O)(=O)c1ccc(N2CCOCC2)c(C(=O)Nc2ccc3[nH]c(=O)[nH]c(=O)c3c2)c1` [S37, 5-(dimethylsulfamoyl)-N-(2,4-dioxo-1H-quinazolin-6-yl)-2-morpholino-benzamide], the IC50 is > 10000 nM.
